According to patent US10946007B2, “4-[2-(2-fluorophenoxymethyl)phenyl]piperidine compounds” (THERAVANCE BIOPHARMA R&D IP, LLC, priority 2008, dated 2021):

Tests used:
hNET = biological target: T1, hNET (Homo sapiens, UniProt P23975); experiment: hNET membrane radioligand binding assay (Assay 1, 3H-nisoxetine); details: Assay 1, membranes of HEK-293 cells expressing hNET; read-out: NET pKi (converted)
T1 construct: expressed in transfected cells; host or cells: HEK-293
Experimental: (§1) Membrane radioligand binding assays were used to measure competitive inhibition of labeled ligand (^3H-citalopram or ^3H-nisoxetine or ^3H-WIN35428) binding to membranes prepared from cells expressing the respective human recombinant transporter (hSERT or hNET or hDAT) in order to determine the pKi values of test compounds at the transporters.
(§2) Recombinant human embryonic kidney (HEK-293) derived cell lines stably transfected with hSERT or hNET, respectively, were grown in DMEM medium supplemented with 10% dialyzed FBS (for hSERT) or FBS (for hNET), 100 μg/ml penicillin, 100 μg/ml streptomycin, 2 mM L-glutamine and 250 μg/ml of the aminoglycoside antibiotic G418, in a 5% CO2 humidified incubator at 37° C. When cultures reached 80% confluence, the cells were washed thoroughly in PBS (without Ca^2+ and Mg^2+) and lifted with 5 mM EDTA in PBS. Cells were pelleted by centrifugation, resuspended in lysis buffer (10 mM Tris-HCl, pH7.5 containing 1 mM EDTA), homogenized, pelleted by centrifugation, then resuspended in 50 mM Tris-HCl, pH 7.5 and 10% sucrose at 4° C. Protein concentration of the membrane suspension was determined using a Bio-Rad Bradford Protein Assay kit. Membranes were snap frozen and stored at −80° C. Chinese hamster ovary membranes expressing hDAT (CHO-DAT) were purchased from PerkinElmer and stored at −80° C.
(§3) Binding assays were performed in a 96-well assay plate in a total volume of 200 μl assay buffer (50 mM Tris-HCl, 120 mM NaCl, 5 mM KCl, pH 7.4) with 0.5, 1, and 3 μg membrane protein, for SERT, NET and DAT, respectively.
(§4) Stock solutions (10 mM in DMSO) of test compound were prepared and serial dilutions made using Dilution Buffer (50 mM Tris-HCl, 120 mM NaCl, 5 mM KCl, pH 7.4, 0.1% BSA, 400 μM ascorbic acid).
(§5) Following a 60 minute incubation at 22° C. (or a period sufficient to reach equilibrium), the membranes were harvested by rapid filtration over a 96-well UniFilter GF/B plate, pretreated with 0.3% polyethyleneimine, and washed 6 times with 300 μl wash buffer (50 mM Tris-HCl, 0.9% NaCl, pH 7.5 at 4° C.). Plates were dried overnight at room temperature, 45 μl of MicroScint™-20 (Perkin Elmer) added and bound radioactivity quantitated via liquid scintillation spectroscopy. Competitive inhibition curves and saturation isotherms were analyzed using GraphPad Prism Software package (GraphPad Software, Inc., San Diego, Calif.). IC50 values were generated from concentration response curves using the Sigmoidal Dose Response (variable slope) algorithm in Prism GraphPad.

hSERT = biological target: T2, hSERT (Homo sapiens, UniProt P31645); experiment: hSERT membrane radioligand binding assay (Assay 1, 3H-citalopram); details: Assay 1, membranes of HEK-293 cells expressing hSERT; read-out: SERT pKi (converted)
T2 construct: expressed in transfected cells; host or cells: HEK-293
T2 sequence (P31645 whole entry): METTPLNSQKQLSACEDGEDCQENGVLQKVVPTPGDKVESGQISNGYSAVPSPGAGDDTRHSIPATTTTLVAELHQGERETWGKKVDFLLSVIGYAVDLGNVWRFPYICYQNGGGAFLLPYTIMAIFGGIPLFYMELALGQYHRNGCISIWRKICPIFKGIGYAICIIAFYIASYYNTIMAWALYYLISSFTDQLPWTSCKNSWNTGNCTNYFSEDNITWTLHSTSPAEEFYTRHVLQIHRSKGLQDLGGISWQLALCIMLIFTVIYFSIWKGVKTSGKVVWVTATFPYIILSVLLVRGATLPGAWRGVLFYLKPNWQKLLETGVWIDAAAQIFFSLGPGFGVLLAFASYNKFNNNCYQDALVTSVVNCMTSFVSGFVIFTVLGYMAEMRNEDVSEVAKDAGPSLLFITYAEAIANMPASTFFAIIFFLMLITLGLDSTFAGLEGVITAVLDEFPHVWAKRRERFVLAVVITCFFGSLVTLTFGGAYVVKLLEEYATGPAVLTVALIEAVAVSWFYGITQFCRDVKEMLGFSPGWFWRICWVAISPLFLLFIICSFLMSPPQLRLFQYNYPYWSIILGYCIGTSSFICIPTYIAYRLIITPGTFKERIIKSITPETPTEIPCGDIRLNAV
Experimental: as §1, §2, §3, §4, §5

T1 sequence (P23975 whole entry): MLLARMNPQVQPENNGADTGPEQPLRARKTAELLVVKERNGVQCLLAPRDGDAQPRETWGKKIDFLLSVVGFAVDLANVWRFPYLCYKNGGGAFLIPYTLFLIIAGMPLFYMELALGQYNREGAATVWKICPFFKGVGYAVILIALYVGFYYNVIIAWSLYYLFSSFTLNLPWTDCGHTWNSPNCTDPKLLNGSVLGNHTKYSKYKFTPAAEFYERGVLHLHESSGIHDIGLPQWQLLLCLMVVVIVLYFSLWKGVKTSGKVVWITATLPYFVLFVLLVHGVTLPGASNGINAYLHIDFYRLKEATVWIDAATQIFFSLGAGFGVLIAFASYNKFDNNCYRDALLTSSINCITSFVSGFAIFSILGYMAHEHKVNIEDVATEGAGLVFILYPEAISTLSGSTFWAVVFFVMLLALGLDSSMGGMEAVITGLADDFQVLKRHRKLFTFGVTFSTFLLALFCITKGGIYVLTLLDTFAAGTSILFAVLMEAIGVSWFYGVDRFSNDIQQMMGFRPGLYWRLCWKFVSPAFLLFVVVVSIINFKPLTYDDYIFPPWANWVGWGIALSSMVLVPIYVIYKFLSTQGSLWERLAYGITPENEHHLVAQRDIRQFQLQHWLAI

SMILES	Ki (hNET)	Ki (hSERT)
Clc1ccccc1OCc1ccccc1C1CCNCC1 [Compound 2-chloro]	0.0316 µM	0.00398 µM
Cc1ccccc1OCc1ccccc1C1CCNCC1 [Compound 2-methyl]	0.0316 µM	0.00158 µM
Fc1ccccc1OCc1ccccc1C1CCNCC1 [Compound 3-1]	0.00501 µM	0.0126 µM
c1ccc(OCc2ccccc2C2CCNCC2)cc1 [unsubstituted]	0.0398 µM	0.0316 µM
